This note sets out measurements from PubChem BioAssay AID256 (DTP/NCI, 2004).

Where “and” joins values, the source holds several entries; their conditions need not be identical. Equal entries are not always repeated. Inconclusive results and toxic doses are left out.

This experiment deals with CD2F1 mice, L1210 leukemia ip, survival T/C. The experiment can be described thus: NCI In Vivo Anticancer Drug Screen. Data for tumor model L1210 Leukemia (intraperitoneal) in CD2F1 (CDF1) mice. The settings on record: higher = longer survival. The gist of the method: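 Read-out first: treated-group measurement over vehicle-control measurement, expressed as a ratio. Animals bore a transplanted tumor line and were dosed with compound or vehicle.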

Where [1] appears, read: endpoint: mean survival time, dose: 100.0 mg/kg/injection, schedule: Q04DX003 (ip), vehicle: saline with Tween-80.
Setting [2] is: endpoint: mean survival time, dose: 200.0 mg/kg/injection, schedule: Q04DX003 (ip), vehicle: saline with Tween-80.
[3] abbreviates: endpoint: mean survival time, dose: 400.0 mg/kg/injection, schedule: Q04DX003 (ip), vehicle: saline with Tween-80.
The mark [4] stands for this setting: endpoint: mean survival time, dose: 100.0 mg/kg/injection, schedule: Q01DX001 (ip), vehicle: saline with Tween-80.
[5] abbreviates: endpoint: mean survival time, dose: 200.0 mg/kg/injection, schedule: Q01DX001 (ip), vehicle: saline with Tween-80.
The mark [6] stands for this setting: endpoint: mean survival time, dose: 400.0 mg/kg/injection, schedule: Q01DX001 (ip), vehicle: saline with Tween-80.
[7] abbreviates: endpoint: mean survival time, dose: 100.0 mg/kg/injection, schedule: Q01DX009 (ip), vehicle: saline with Tween-80.
Setting [8] is: endpoint: mean survival time, dose: 200.0 mg/kg/injection, schedule: Q01DX009 (ip), vehicle: saline with Tween-80.
Setting [9] is: endpoint: mean survival time, dose: 400.0 mg/kg/injection, schedule: Q01DX009 (ip), vehicle: saline with Tween-80.
Where [10] appears, read: endpoint: mean survival time, dose: 100.0 mg/kg/injection, schedule: Q01DX001 (ip), vehicle: saline.
Where [11] appears, read: endpoint: mean survival time, dose: 200.0 mg/kg/injection, schedule: Q01DX001 (ip), vehicle: saline.
[12] abbreviates: endpoint: mean survival time, dose: 400.0 mg/kg/injection, schedule: Q01DX001 (ip), vehicle: saline.

As for `CC(C)OC(=O)CC#N`, the T/C was 96 % of control under setting [1], 105 % of control under setting [2] and 96 % of control under setting [3].

`OCC1OC(c2nn(-c3ccccc3)[n+](-c3ccccc3)n2)C(O)C1O` (stereo not given): the T/C by setting is: (endpoint: mean survival time, dose: 12.5 mg/kg/injection, schedule: Q01DX005 (ip), vehicle: water) 106 % of control; (endpoint: mean survival time, dose: 25.0 mg/kg/injection, schedule: Q01DX005 (ip), vehicle: water) 97 % of control; (endpoint: mean survival time, dose: 50.0 mg/kg/injection, schedule: Q01DX005 (ip), vehicle: water) 95 % of control; (endpoint: mean survival time, dose: 100.0 mg/kg/injection, schedule: Q01DX005 (ip), vehicle: water) 106 % of control; (endpoint: mean survival time, dose: 200.0 mg/kg/injection, schedule: Q01DX005 (ip), vehicle: water) 103 % of control.

Take `CC1=CC(=Nc2ccc(N(CCCl)CCCl)cc2)C=C(C)C1=O`: the T/C by setting is: (endpoint: mean survival time, dose: 6.25 mg/kg/injection, schedule: Q01DX009 (ip), vehicle: Klucel (hydroxypropylcellulose) (HPC)) 115 % of control and 108 % of control; (endpoint: mean survival time, dose: 100.0 mg/kg/injection, schedule: Q01DX009 (ip), vehicle: Klucel (hydroxypropylcellulose) (HPC)) 86 % of control and 96 % of control.

For `CC(=O)OCC(OC(C)=O)C1OC(OC2CCCCC2)C(OC(C)=O)C(OC(C)=O)C1OC(C)=O` (stereo not given), the T/C by setting is: under setting [4], 93 % of control; under setting [5], 98 % of control; under setting [6], 88 % of control.

With `CC1(C)COC(c2ccccc2)OC1`, the T/C by setting is: under setting [4], 95 % of control; under setting [5], 103 % of control; under setting [6], 101 % of control.

Regarding `CCc1ncc(C(C)(O)c2ccccc2)n1Cc1ccccc1` (stereo not given), the T/C under setting [7] is 95 % of control, the T/C under setting [8] is 90 % of control and the T/C under setting [9] is 94 % of control.

`Cc1c2cnccc2c(C)c2c1c1ccccc1n2CCCCCCNCc1ccccc1`: the T/C (endpoint: mean survival time, dose: 25.0 mg/kg/injection, schedule: Q04DX003 (ip), vehicle: saline with Tween-80) is 95 % of control; the T/C (endpoint: mean survival time, dose: 50.0 mg/kg/injection, schedule: Q04DX003 (ip), vehicle: saline with Tween-80) was 89 % of control; the T/C under setting [1] was 95 % of control.

Take `COC1OC(COC(=O)c2ccccc2)C(OC(=O)c2ccccc2)C(OC(=O)c2ccccc2)C1OC(=O)c1ccccc1` (stereo not given): the T/C runs as follows: under setting [1], 95 % of control; under setting [2], 91 % of control; under setting [3], 87 % of control.

In the case of `O=C1C2CC(Cl)C(SSC3CC4C(=O)N(SC(Cl)(Cl)C(Cl)Cl)C(=O)C4CC3Cl)CC2C(=O)N1SC(Cl)(Cl)C(Cl)Cl` (stereo not given), the T/C is 101 % of control (endpoint: median survival time, dose: 6.25 mg/kg/injection, schedule: Q01DX009 (ip), vehicle: saline with Tween-80); 95 % of control (endpoint: median survival time, dose: 12.5 mg/kg/injection, schedule: Q01DX009 (ip), vehicle: saline with Tween-80); 98 % of control and 100 % of control (endpoint: median survival time, dose: 25.0 mg/kg/injection, schedule: Q01DX009 (ip), vehicle: saline with Tween-80); 101 % of control and 102 % of control (endpoint: median survival time, dose: 50.0 mg/kg/injection, schedule: Q01DX009 (ip), vehicle: saline with Tween-80); 100 % of control and 102 % of control (endpoint: median survival time, dose: 100.0 mg/kg/injection, schedule: Q01DX009 (ip), vehicle: saline with Tween-80); 102 % of control (endpoint: median survival time, dose: 200.0 mg/kg/injection, schedule: Q01DX009 (ip), vehicle: saline with Tween-80). For the same molecule, where the note is “endpoint: median survival time, dose: 400.0 mg/kg/injection, schedule: Q01DX009 (ip), vehicle: saline with Tween-80”, the T/C was 105 % of control.

Turning to `CCC(N)C(O)C(C)C` (stereo not given), the T/C under setting [10] was 105 % of control, the T/C under setting [11] was 90 % of control and the T/C under setting [12] was 96 % of control.

In the case of `CCC(CC)C(=O)OCCCCOC(=O)C(CC)CC`, the T/C was 93 % of control (endpoint: mean survival time, dose: 100.0 mg/kg/injection, schedule: Q04DX003 (ip), vehicle: saline); 107 % of control (endpoint: mean survival time, dose: 200.0 mg/kg/injection, schedule: Q04DX003 (ip), vehicle: saline); 107 % of control (endpoint: mean survival time, dose: 400.0 mg/kg/injection, schedule: Q04DX003 (ip), vehicle: saline).

On to `CN1CCCC1CCNc1nc(C(Cl)(Cl)Cl)nc2cc(Cl)ccc12` (stereo not given), for which the T/C is 98 % of control under setting [7]; 95 % of control under setting [1]; 98 % of control under setting [8]; 90 % of control under setting [2]; 101 % of control under setting [9]; 100 % of control under setting [3].

Take `CC1CCC[N-]C1.CC1CCC[N-]C1.CC1CCC[N-]C1.CC1CCC[N-]C1.[Cl][Rh][Cl]` (stereo not given): the T/C (endpoint: mean survival time, dose: 4.0 mg/kg/injection, schedule: Q01DX009 (ip), vehicle: saline) was 109 % of control; the T/C (endpoint: mean survival time, dose: 6.0 mg/kg/injection, schedule: Q01DX009 (ip), vehicle: saline) was 122 % of control; the T/C (endpoint: mean survival time, dose: 9.0 mg/kg/injection, schedule: Q01DX009 (ip), vehicle: saline) was 114 % of control.

As to `O=S(=O)(Cc1cc(-c2ccccc2)n[nH]1)c1ccccc1`, the T/C reads like this: under setting [10], 96 % of control; under setting [11], 95 % of control; under setting [12], 98 % of control.

For the molecule `CC(=O)OCc1ccc2ccccc2c1`, the T/C is 100 % of control under setting [7], 102 % of control under setting [8] and 118 % of control under setting [9].

With `Cn1c(=O)c2c(nc(NCCCO)n2C)n(C)c1=O`, the T/C is, setting by setting: (endpoint: mean survival time, dose: 12.5 mg/kg/injection, schedule: Q01DX005 (ip), vehicle: distilled water + Tween-80) 100 % of control; (endpoint: mean survival time, dose: 25.0 mg/kg/injection, schedule: Q01DX005 (ip), vehicle: distilled water + Tween-80) 94 % of control; (endpoint: mean survival time, dose: 50.0 mg/kg/injection, schedule: Q01DX005 (ip), vehicle: distilled water + Tween-80) 94 % of control; (endpoint: mean survival time, dose: 100.0 mg/kg/injection, schedule: Q01DX005 (ip), vehicle: distilled water + Tween-80) 94 % of control; (endpoint: mean survival time, dose: 200.0 mg/kg/injection, schedule: Q01DX005 (ip), vehicle: distilled water + Tween-80) 98 % of control.

In the case of `C=C1C(=O)O[C@H]2C[C@@]3(C)[C@H](O)CCC(=C)[C@@H]3[C@@H](OC(C)=O)[C@H]12`, the T/C is, setting by setting: (endpoint: mean survival time, dose: 75.0 mg/kg/injection, schedule: Q01DX001 (ip), vehicle: saline) 102 % of control; (endpoint: mean survival time, dose: 150.0 mg/kg/injection, schedule: Q01DX001 (ip), vehicle: saline) 106 % of control; (endpoint: mean survival time, dose: 300.0 mg/kg/injection, schedule: Q01DX001 (ip), vehicle: saline) 103 % of control.

On to `Oc1ccccc1/C=N/c1nc(-c2ccccc2)cs1.Oc1ccccc1/C=N/c1nc(-c2ccccc2)cs1.[Zn]`, for which the T/C was 103 % of control (endpoint: mean survival time, dose: 25.0 mg/kg/injection, schedule: Q01DX001 (ip), vehicle: saline); 100 % of control (endpoint: mean survival time, dose: 50.0 mg/kg/injection, schedule: Q01DX001 (ip), vehicle: saline); 104 % of control under setting [4]; 91 % of control under setting [10].

As to `N#Cc1c(N)[nH]c2ccc(Sc3ccccc3)cc12`, the T/C is, setting by setting: (endpoint: median survival time, dose: 6.25 mg/kg/injection, schedule: Q01DX005 (ip), vehicle: saline with Tween-80) 108 % of control; (endpoint: median survival time, dose: 12.5 mg/kg/injection, schedule: Q01DX005 (ip), vehicle: saline with Tween-80) 101 % of control and 109 % of control; (endpoint: median survival time, dose: 25.0 mg/kg/injection, schedule: Q01DX005 (ip), vehicle: saline with Tween-80) 102 % of control and 112 % of control; (endpoint: median survival time, dose: 43.0 mg/kg/injection, schedule: Q01DX005 (ip), vehicle: saline with Tween-80) 112 % of control; (endpoint: median survival time, dose: 43.2 mg/kg/injection, schedule: Q01DX005 (ip), vehicle: saline with Tween-80) 117 % of control; (endpoint: median survival time, dose: 50.0 mg/kg/injection, schedule: Q01DX005 (ip), vehicle: saline with Tween-80) 123 % of control and 110 % of control. Moreover, the T/C by setting is: (endpoint: median survival time, dose: 100.0 mg/kg/injection, schedule: Q01DX005 (ip), vehicle: saline with Tween-80) 101 % of control; (endpoint: median survival time, dose: 120.0 mg/kg/injection, schedule: Q01DX005 (ip), vehicle: saline with Tween-80) 153 % of control and 164 % of control.

In the case of `O=C(NCCO)c1cc2ccccc2o1`, the T/C reads like this: under setting [4], 93 % of control; under setting [5], 98 % of control; under setting [6], 90 % of control.

For the molecule `COC(=O)Cc1cc(O)c(C(=O)OC)c(O)c1C(=O)OC`, the T/C is 103 % of control under setting [4], 98 % of control under setting [5] and 98 % of control under setting [6].

Turning to `N=Cc1c(O)n(-c2ccccc2)c(=O)n(-c2ccccc2)c1=O`, the T/C is, setting by setting: under setting [1], 94 % of control; under setting [2], 94 % of control; under setting [3], 92 % of control.

With `Cc1ccc(C(=O)c2nnc(C(=O)c3ccc(C)cc3)nn2)cc1`, the T/C reads like this: under setting [1], 92 % of control; under setting [2], 92 % of control; under setting [3], 86 % of control.
